Holding throughout (format): cell-based
Test [1] deals with T1, human Nav1.3 (hSCN3A) (Homo sapiens, UniProt Q9NY46).
T1 construct: expressed in transfected cells; host or cells: HEK293 cells
Briefly: Electrophysiology assay (whole cell patch clamp), human Nav1.3. As to conditions: dissociation constant for the inactivated state, HEK293 cells, read-out: activity (Ki) against Nav1.3. The procedure:
(§1) Electrophysiology Assay for Nays
(§2) Whole cell patch clamp recording is used to assess the efficacy or selectivity of Na channel blocker on human Nav1.3 (hSCN3A) expressing HEK293 cells or human Nav1.7 (hSCN9A) expressing CHO cells. Human Nav1.3 expressing HEK293 cells are grown in growth media which contain: DMEM, 10% heat-inactivated FBS (Hyclone Laboratories Inc), 100 microgram/mL penicillin/100U/mL streptomycin, 150 microgram/mL Zeocin, and 3 microgram/mL Geneticin. Human Nav1.7 expressing CHO cells are grown in growth media which contain: HAMF-12, 9% heat-inactivated FBS (Hyclone Laboratories Inc), and 100 microgram/mL penicillin/100 U/mL streptomycin, and 100 microgram/mL hygromycin. […]
(§3) The normalized steady-state inactivation curve is constructed using 2 sec (for vehicle) or 60 sec (for drugs) conditioning pulse to different potentials followed immediately by the test pulse to −10 mV. […] The affinity of drugs to resting state of Na channels (Kresting or Kr) is assessed by 30 msec test pulse from a negative holding potential of -120 or −130 mV, where virtually all channels are in the resting state. Kr value is calculated by a conventional 1:1 binding model: Kresting(Kr)={[drug]Imax,drug/(Imax,control−Imax,drug)} [Math.2] • where Kresting(=Kr) is a dissociation constant for the resting state and [drug] is compound concentration. […]
(Patch clamp records ionic current or voltage across a cell membrane.)

Test [2] concerns the target T2, human Nav1.7 (hSCN9A) (Homo sapiens, UniProt Q15858).
T2 construct: expressed in transfected cells; host or cells: CHO cells
Briefly: Electrophysiology assay (whole cell patch clamp), human Nav1.7. The following applies: dissociation constant for the inactivated state, CHO cells, read-out: activity (Ki) against Nav1.7. The procedure: as §1, §2, §3

The target of test [3] is T3, human Nav1.5 channels (Homo sapiens, UniProt Q14524).
T3 construct: expressed in transfected cells; host or cells: HEK293 cells
The test is described as follows: FRET assay, human Nav1.5 channels. As to conditions: read-out: activity against Nav1.5 (IC50). The method, then:
(§4) The inhibitory activities of compounds against voltage gated sodium channels are determined by methodology well known in the art.
(§5) The ability of the pyrazolopyridine derivatives of the formula (I) to inhibit the Nav1.3, Nav1.7 and Nav1.5 channels is measured by Fluorescence Resonance Energy Transfer (FRET) assay and electrophysiology assay described below.
(§6) This screen is used to determine the effects of compounds on human Nav1.3, human Nav1.7, and human Nav1.5 channels, utilising electrical field stimulation (EFS) system in 96-well plate format on FDSS (Hamamatsu Photonics) platform. The change of membrane potential is monitored with FRET dye pair, oxonol (DiSBAC2(3)) and coumarin (CC2-DMPE).
Each HEK293 cells expressing human Nav1.3 channels and HEK293 cells expressing human Nav1.5 channels are grown in T225 flasks, in a 5% CO2 humidified incubator to about 80% confluence. Media composition consists of Dulbecco's Modified Eagle Medium (high glucose), 10% FCS, 100 units/mL penicillin, 100 microgram/mL streptomycin and 500 microgram/mL Geneticine. […]
(§7) The data are analyzed and reported as normalized ratios of intensities measured at […]. […]
(§8) This analysis is performed using a computerized specific program designed for FDSS generated data. Fluorescence ratio values are plotted using XLfit to determine an IC50 value for each compound.

For test [4], the target named is T4, human Nav1.7 channels (Homo sapiens, UniProt Q15858).
T4 construct: expressed in transfected cells; host or cells: CHO cells
The test is described as follows: FRET assay, human Nav1.7 channels. The procedure: as §4, §5, §6
CHO cells expressing human Nav1.7 channels are grown in T225 flasks, in a 5% CO2 humidified incubator to about 80% confluence. Media composition consists of HAM/F12 with Glutamax I, 10% FCS, 100 units/mL penicillin and 100 microgram/mL hygromycin. […]
as §7, §8

Where two headings read alike, the source gives them in different places. Where only a bound is given, the exact number is not on record here.

T4 sequence (Q15858 whole entry): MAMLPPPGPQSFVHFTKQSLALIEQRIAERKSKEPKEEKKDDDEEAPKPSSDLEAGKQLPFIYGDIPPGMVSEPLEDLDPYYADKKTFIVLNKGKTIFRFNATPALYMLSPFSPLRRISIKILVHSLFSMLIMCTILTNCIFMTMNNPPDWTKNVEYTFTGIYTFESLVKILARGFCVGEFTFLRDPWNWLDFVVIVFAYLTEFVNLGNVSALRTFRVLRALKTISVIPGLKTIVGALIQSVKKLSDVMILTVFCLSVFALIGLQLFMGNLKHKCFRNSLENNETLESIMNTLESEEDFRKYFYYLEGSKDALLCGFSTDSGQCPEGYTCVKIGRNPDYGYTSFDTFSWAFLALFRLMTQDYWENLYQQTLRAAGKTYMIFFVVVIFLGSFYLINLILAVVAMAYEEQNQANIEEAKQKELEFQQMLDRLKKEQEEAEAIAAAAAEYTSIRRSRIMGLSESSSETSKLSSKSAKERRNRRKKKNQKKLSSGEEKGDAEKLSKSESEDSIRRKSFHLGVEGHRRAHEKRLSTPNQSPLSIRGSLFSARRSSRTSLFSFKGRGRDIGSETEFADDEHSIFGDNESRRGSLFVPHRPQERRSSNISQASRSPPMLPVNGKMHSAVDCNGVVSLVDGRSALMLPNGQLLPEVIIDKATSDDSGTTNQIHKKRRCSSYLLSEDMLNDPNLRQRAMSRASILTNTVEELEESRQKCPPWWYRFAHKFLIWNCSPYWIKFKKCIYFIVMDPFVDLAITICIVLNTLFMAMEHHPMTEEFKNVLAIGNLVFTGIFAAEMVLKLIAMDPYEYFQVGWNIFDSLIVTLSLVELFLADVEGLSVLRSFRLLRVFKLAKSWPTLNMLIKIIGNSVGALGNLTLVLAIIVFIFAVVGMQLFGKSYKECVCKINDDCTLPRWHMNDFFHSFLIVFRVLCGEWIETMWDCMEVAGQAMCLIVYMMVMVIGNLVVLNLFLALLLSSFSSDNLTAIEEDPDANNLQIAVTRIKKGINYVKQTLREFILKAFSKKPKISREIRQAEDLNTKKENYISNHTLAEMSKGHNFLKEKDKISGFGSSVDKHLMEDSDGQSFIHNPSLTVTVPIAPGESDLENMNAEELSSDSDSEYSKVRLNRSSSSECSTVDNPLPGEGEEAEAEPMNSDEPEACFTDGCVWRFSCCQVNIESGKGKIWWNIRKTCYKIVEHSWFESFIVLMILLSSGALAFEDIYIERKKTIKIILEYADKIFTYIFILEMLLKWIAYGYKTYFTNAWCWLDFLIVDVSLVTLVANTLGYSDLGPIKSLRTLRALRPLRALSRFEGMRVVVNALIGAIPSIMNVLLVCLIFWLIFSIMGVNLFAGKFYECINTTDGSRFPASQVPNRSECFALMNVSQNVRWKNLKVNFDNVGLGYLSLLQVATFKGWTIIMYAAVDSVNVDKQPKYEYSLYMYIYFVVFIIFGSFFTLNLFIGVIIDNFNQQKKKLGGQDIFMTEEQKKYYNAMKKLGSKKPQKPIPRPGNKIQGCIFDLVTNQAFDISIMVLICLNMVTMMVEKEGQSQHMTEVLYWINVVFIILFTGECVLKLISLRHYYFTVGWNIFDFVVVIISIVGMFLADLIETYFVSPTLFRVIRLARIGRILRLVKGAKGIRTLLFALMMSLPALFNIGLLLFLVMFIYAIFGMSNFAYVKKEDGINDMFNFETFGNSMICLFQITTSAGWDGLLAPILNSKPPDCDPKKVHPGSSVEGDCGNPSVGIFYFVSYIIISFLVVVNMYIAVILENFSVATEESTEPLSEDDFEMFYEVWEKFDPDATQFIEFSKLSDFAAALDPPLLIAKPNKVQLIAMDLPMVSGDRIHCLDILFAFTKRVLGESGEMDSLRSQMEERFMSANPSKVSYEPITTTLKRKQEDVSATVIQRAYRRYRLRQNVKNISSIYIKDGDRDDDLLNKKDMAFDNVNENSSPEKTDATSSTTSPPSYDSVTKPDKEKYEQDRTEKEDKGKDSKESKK
T3 sequence (Q14524 whole entry): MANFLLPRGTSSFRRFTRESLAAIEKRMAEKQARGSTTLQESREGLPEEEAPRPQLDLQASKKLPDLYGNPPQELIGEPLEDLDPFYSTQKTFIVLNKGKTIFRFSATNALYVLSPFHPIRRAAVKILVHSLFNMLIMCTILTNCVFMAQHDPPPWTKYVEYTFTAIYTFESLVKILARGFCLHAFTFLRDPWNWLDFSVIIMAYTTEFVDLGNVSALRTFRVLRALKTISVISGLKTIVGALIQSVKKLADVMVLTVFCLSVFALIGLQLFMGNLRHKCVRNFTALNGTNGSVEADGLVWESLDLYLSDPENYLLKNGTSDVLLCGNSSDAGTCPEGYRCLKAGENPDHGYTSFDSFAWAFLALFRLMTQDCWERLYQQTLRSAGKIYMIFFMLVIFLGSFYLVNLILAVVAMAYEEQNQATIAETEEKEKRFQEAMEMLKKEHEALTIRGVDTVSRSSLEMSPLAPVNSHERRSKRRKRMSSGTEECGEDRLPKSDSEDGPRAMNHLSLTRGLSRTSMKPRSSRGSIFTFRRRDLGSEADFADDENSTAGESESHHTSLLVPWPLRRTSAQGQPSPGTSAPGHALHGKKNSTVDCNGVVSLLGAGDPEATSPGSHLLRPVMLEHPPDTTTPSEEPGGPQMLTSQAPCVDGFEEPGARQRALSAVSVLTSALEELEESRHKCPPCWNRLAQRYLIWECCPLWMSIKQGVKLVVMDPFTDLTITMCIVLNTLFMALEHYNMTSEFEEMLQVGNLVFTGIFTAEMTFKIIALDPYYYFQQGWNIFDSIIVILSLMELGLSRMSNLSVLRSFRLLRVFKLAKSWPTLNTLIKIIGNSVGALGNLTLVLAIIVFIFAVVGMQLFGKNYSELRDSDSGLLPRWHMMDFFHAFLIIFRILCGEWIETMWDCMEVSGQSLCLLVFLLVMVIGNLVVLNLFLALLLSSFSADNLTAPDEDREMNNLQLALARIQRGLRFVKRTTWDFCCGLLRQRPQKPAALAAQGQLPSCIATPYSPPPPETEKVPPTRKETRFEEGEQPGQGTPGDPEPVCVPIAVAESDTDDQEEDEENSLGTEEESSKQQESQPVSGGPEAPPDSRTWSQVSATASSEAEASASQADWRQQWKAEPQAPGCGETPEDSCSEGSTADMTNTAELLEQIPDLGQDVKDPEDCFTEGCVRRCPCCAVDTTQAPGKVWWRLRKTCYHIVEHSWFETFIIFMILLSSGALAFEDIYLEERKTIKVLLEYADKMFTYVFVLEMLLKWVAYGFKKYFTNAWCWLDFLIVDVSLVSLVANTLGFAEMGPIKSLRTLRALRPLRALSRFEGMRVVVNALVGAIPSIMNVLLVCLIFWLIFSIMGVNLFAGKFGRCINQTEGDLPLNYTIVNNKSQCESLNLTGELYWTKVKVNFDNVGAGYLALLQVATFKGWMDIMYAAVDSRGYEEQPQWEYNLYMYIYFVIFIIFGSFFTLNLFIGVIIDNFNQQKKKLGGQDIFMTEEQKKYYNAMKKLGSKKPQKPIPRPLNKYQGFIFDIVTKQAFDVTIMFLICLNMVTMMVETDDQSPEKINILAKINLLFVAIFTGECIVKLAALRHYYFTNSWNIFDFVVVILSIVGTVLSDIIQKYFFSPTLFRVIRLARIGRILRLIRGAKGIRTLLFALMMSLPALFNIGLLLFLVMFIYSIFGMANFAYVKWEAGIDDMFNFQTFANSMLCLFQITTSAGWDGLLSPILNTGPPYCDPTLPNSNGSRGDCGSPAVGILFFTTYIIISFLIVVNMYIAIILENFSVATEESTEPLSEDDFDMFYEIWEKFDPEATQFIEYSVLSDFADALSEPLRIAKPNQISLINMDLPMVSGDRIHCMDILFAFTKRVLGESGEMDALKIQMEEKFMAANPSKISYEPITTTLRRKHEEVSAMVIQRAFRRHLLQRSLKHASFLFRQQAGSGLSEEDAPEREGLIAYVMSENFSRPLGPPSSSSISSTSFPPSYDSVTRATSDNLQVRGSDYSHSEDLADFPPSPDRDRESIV
T2 sequence (Q15858 whole entry): as the sequence (Q15858 whole entry) above

Turning to `Cc1cc(Cn2cc3c(NC(=O)C(C)(C)O)nccc3n2)cnc1OCC(F)(F)F` [Example 2, 2-hydroxy-2-methyl-N-(2-((5-methyl-6-(2,2,2-trifluoroethoxy)pyridin-3-yl)methyl)-2H-pyrazolo[4,3-c]pyridin-4-yl)propanamide], the figures for the Ki in test [1] and in test [2] were 570 nM and 340 nM, respectively. Further, the IC50 was more than 30000 nM in test [3]; less than 1000 nM in test [4] (bound holds for Nav1.7 and/or Nav1.3, not stated which, read-out: IC50 against Nav1.7 and/or Nav1.3); 380 nM in test [4] (read-out: activity against Nav1.7 (IC50)).

(Values after patent publication US9944634B2, “Pyrazolopyridine derivatives as TTX-S blockers” (RaQualia Pharma Inc., priority 2012, dated 2018).)
